Experimental data published in publication PMC3602354 (Chemical research in toxicology, 2013).
Several values for one entry are separate records, joined by “and”; a condition that tells them apart may be missing. Equal entries are not always repeated.

Assays:
in vitro [1] = type: in vitro ADME, mouse; details: mouse, pH 7.4
[2] = test system: WT mouse nasal mucosa microsomes; assay: in vitro; type: in vitro ADME; details: GS-DCBN formation; WT mouse nasal mucosa microsomes; mean ± SE, n=3
in vitro [3] = type: in vitro ADME, mouse; details: Cyp2a5-null, mouse, pH 7.4
[4] = test system: Cyp2a5-null mouse nasal mucosa microsomes; assay: in vitro; type: in vitro ADME
in vitro [5] = type: in vitro ADME, human; details: both, human
[6] = test system: human fetal nasal mucosa microsomes; assay: in vitro; type: in vitro ADME; details: GS-DCBN formation; human fetal nasal mucosa microsomes; mean ± SE, n=3
nasal mucosa [7] = assay: Histopathological analysis of nasal mucosa in DCBN-treated WT mice; type: in vivo, mouse
nasal mucosa [8] = assay: Histopathological analysis of nasal mucosa in DCBN-treated Cyp2a5-null mice; type: in vivo, mouse; details: DCBN 10 mg/kg single i.p., 24 h after treatment
[9] = Cyp2a5-null vs WT nasal mucosa microsomes

For `N#Cc1c(Cl)cccc1Cl` [DCBN, 2,6-dichlorobenzonitrile], the Km (in vitro [1]) was 0.43 ± 0.04 µM, the Vmax [2] was 1050 ± 30 pmol/min/mg protein and the Km (in vitro [3]) was 4.2 ± 0.6 µM. The “decrease in apparent Vmax compared to WT mice” value [4, 9] was ~ 4 fold, the “increase in apparent Km compared to WT mice” value [4, 9] was ~ 10 fold and the “reduction of efficiency for GS-DCBN formation compared to WT mice” value [4, 9] was ~ 40 fold. For the same molecule, the Vmax ([4]; GS-DCBN formation, Cyp2a5-null mouse nasal mucosa microsomes, mean ± SE, n=3) was 253 ± 12 pmol/min/mg protein, the Km at 60 min (in vitro [5]) was 0.45 ± 0.1 µM and the Vmax [6] was 0.14 pmol/min/mg protein and 0.14 ± 0.01 pmol/min/mg protein. For the same molecule, the “histopathology of nasal mucosa” value (nasal mucosa [7]; DCBN 10 mg/kg single i.p., 24 h after treatment) was “moderate injury to the nasal mucosa”, the “histopathology of nasal mucosa” value (nasal mucosa [7]; DCBN 4 × 1 mg/kg s.c., 1.5-h intervals, 24 h after last treatment) was “essentially normal morphology” and the “histopathology of nasal mucosa” value (nasal mucosa [8]) was “essentially normal olfactory epithelium and BG”.
